Values quoted from earlier work as cited in US7771758B2, “Extract of mad-dog skullcap” (Tom's of Maine, priority 2002, dated 2010).

Assays:
[1] = tested on: benzodiazepine site of the GABAA receptor; details: in vitro; flavones isolated from Scutellaria baicalensis
[2] = tested on: intestinal bacteria

| intestinal absorption (in vivo) | conjugation in the plasma (plasma) | Structure (SMILES) | ability to bind to the benzodiazepine site of the GABAA receptor [1] | transformation by intestinal bacteria [2] |
| --- | --- | --- | --- | --- |
|  |  | O=C(O)[C@H]1O[C@@H](Oc2cc3oc(-c4ccccc4)cc(=O)c3c(O)c2O)[C@H](O)[C@@H](O)[C@@H]1O [baicalin] | weak ligands | transformed to its aglycon baicalein |
| readily absorbed intestinally | efficiently conjugated back to baicalin | O=c1cc(-c2ccccc2)oc2cc(O)c(O)c(O)c12 [Baicalein, baicalein] | weak ligands |  |
|  |  | COc1c(O)cc(O)c2c(=O)cc(-c3ccccc3)oc12 [wogonin] | strong affinity |  |
|  |  | COc1c(O)cc2oc(-c3ccccc3)cc(=O)c2c1O [oroxylin A] | strong affinity |  |
